Measurements taken from patent publication US6495680B1, “Helices and nanotubes on folding compositions and method of making same” (The University of Toledo, priority 2000, dated 2002).

Experiment: Solubility of oligomers in organic solvents
Type: physicochemical
Text: Oligomers such as the homologues H, K, L, M, N, and O are synthesized by treating acid chloride with the corresponding amines.
From H to N, all the amide-H resonances appear at positions >9.2 ppm. […] That one amide-H resonance, appears at δ8.86.

COc1ccccc1NC(=O)c1cc(NC(=O)c2cc([N+](=O)[O-])c(OC)cc2OC)c(OC)cc1OC [K]
solubility in DMF (DMF): increasingly insoluble | behaviour of the freshly prepared compound in DMF on standing (freshly prepared, added to DMF, standing at room temperature, precipitation faster at elevated temperatures): gradually precipitate out
